Converted amounts (≈) assume the structure as drawn.
Experiments:
[1] = molecular target: T1, ATP-dependent translocase ABCB1 (Homo sapiens, UniProt P08183); test: Reversal of P-glycoprotein-mediated multidrug resistance in human MDR1 gene transfected mouse L5178 cells assessed as mean fluorescence intensity at 40 ug/ml by rhodamine-123 exclusion test; format: cell-based
[2] = Potentiation of epirubicin-induced cytotoxicity against mouse L5178 cells assessed as fractional inhibitory index by checkerboard microplate method; format: functional
[3] = Lipophilicity, log P of the compound; format: physicochemical; settings: octanol/water
[4] = molecular target: T1, ATP-dependent translocase ABCB1; test: Reversal of P-glycoprotein-mediated multidrug resistance in human MDR1 gene transfected mouse L5178 cells assessed as fluorescence activity ratio at 40 ug/ml by flow cytometry; format: cell-based
[5] = Antiproliferative activity against multidrug-resistant mouse L5178 cells after 72 hrs MTT assay; format: functional; settings: L5178, 72 h, read-out: ID50 (the source's name)
[6] = molecular target: T1, ATP-dependent translocase ABCB1; test: Reversal of P-glycoprotein-mediated multidrug resistance in human MDR1 gene transfected mouse L5178 cells assessed as mean fluorescence intensity at 4 ug/ml by rhodamine-123 exclusion test; format: cell-based
[7] = molecular target: T1, ATP-dependent translocase ABCB1; test: Reversal of P-glycoprotein-mediated multidrug resistance in human MDR1 gene transfected mouse L5178 cells assessed as fluorescence activity ratio at 4 ug/ml by rhodamine-123 exclusion test; format: cell-based
[8] = Antiproliferative activity against parental mouse L5178 cells after 72 hrs MTT assay; format: functional; settings: L5178, 72 h, read-out: ID50 (the source's name)

T1 sequence (P08183 whole entry): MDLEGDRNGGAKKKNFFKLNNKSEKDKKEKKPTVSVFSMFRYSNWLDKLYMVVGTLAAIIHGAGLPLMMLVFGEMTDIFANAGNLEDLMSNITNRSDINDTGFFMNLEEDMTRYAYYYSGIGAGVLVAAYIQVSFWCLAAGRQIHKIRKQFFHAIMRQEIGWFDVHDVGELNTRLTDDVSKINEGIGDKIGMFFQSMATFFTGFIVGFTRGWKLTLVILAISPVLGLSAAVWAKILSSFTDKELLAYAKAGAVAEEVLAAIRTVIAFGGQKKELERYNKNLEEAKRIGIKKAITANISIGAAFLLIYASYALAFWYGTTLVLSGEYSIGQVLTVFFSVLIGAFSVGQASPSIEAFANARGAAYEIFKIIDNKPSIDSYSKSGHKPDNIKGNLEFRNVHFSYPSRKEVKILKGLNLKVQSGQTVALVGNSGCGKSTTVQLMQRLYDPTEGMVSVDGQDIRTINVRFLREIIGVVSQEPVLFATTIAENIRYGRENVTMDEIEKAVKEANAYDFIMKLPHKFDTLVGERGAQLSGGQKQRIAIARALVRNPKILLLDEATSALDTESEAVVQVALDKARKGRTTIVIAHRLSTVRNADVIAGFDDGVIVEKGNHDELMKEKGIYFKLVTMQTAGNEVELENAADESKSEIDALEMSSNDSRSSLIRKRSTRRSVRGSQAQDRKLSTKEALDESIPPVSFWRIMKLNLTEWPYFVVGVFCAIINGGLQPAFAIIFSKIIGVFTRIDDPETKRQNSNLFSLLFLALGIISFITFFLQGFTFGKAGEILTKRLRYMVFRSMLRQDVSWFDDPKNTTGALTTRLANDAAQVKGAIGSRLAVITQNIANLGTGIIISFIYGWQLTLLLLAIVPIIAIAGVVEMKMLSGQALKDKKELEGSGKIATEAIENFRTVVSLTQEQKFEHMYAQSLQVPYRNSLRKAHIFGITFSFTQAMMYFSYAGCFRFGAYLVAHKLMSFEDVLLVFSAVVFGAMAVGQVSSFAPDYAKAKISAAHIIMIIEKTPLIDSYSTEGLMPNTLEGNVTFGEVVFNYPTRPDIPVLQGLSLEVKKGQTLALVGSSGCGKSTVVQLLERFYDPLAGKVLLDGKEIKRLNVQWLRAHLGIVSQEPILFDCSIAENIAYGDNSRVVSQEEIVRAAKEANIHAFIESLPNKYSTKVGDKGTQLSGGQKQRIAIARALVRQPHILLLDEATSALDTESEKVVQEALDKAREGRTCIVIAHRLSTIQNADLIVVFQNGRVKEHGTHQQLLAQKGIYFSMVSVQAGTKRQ

Structure (SMILES)	Flu intensity [1]	fractional inhibitory concentration index (FICI) [2]	logP [3]	Ratio [4]	IC50 [5]	Flu intensity [6]	Ratio [7]	IC50 [8]
C=C1[C@@H](OC(=O)c2ccccc2)[C@@H](OC(C)=O)[C@@H](OC(C)=O)C(C)(C)/C=C/[C@H](C)C(=O)[C@@]2(OC(C)=O)C[C@@](C)(OC(=O)c3ccccc3)[C@H](OC(C)=O)[C@@H]2[C@H]1OC(C)=O [EUPHOTUCKEYANOL]	1476.7	0.08	6.7	106.2	22.8 µg/mL (≈ 27.8 µM)	1127.4	81	45 µg/mL (≈ 55 µM)
C/C1=C\[C@@H]2[C@H](CC[C@@]3(C)O[C@@H]3[C@H]3[C@@H](O)[C@@H](C)C[C@]3(OC(=O)/C=C/c3ccccc3)C1=O)C2(C)C [JOLKINOL B]			5.8					
CC(=O)OC[C@H]1C[C@]2(OC(=O)/C=C/c3ccccc3)C(=O)/C(C)=C/[C@@H]3[C@H](CC[C@@]4(C)O[C@@H]4[C@H]2[C@H]1O)C3(C)C [LATILAGASCENE A]			5.5					
C/C1=C\[C@@H]2[C@H](CC[C@@]3(C)O[C@@H]3[C@H]3[C@@H](O)[C@@H](CO)C[C@]3(OC(=O)/C=C/c3ccccc3)C1=O)C2(C)C [LATILAGASCENE B]			4.8					
CC(=O)OC[C@H]1C[C@]2(OC(=O)/C=C/c3ccccc3)C(=O)/C(C)=C/[C@@H]3[C@H](CC[C@@]4(C)O[C@@H]4[C@H]2[C@H]1OC(C)=O)C3(C)C [LATILAGASCENE C]			6.2					
C/C1=C\[C@@H]2[C@H](CC[C@@]3(C)O[C@@H]3[C@H]3[C@@H](O)[C@@H](COC(=O)c4ccccc4)C[C@]3(OC(=O)/C=C/c3ccccc3)C1=O)C2(C)C [LATILAGASCENE D]			7.2					
CC1(C)[C@@H]2/C=C(\CO)C(=O)[C@@]3(OC(=O)/C=C/c4ccccc4)C[C@H](COC(=O)c4ccccc4)[C@H](O)[C@@H]3[C@H]3O[C@]3(C)CC[C@@H]21 [LATILAGASCENE E]			5.9					
C/C1=C\[C@@H]2[C@H](CC[C@@]3(C)O[C@@H]3[C@H]3[C@@H](O)[C@@H](C)C[C@]3(OC(=O)c3ccccc3)C1=O)C2(C)C [LATILAGASCENE F]			5.3					
CC(=O)O[C@H]1[C@@H](COC(=O)c2ccccc2)C[C@]2(OC(=O)/C=C/c3ccccc3)C(=O)/C(C)=C/[C@@H]3[C@H](CC[C@@]4(C)O[C@@H]4[C@@H]12)C3(C)C [LATILAGASCENE G]	496.6	0.14	7.9	71.6	28 µg/mL (≈ 44.7 µM)	478.3	68.9	32.2 µg/mL (≈ 51.4 µM)
CCC(=O)OC[C@H]1C[C@]2(OC(=O)/C=C/c3ccccc3)C(=O)/C(C)=C/[C@@H]3[C@H](CC[C@@]4(C)O[C@@H]4[C@H]2[C@H]1OC(=O)CC)C3(C)C [LATILAGASCENE H]	541.3	0.07	6.9	78	17.5 µg/mL (≈ 29.5 µM)	427.4	61.6	25.3 µg/mL (≈ 42.7 µM)
CCCC(=O)OC[C@H]1C[C@]2(OC(=O)/C=C/c3ccccc3)C(=O)/C(C)=C/[C@@H]3[C@H](CC[C@@]4(C)O[C@@H]4[C@H]2[C@H]1OC(=O)CCC)C3(C)C [LATILAGASCENE I]	376.5	0.14	8	54.2	17.3 µg/mL (≈ 27.9 µM)	433.4	62.4	23.9 µg/mL (≈ 38.5 µM)
C=C1[C@@H](OC(=O)C(C)CC)[C@@H](OC(C)=O)C(=O)C(C)(C)/C=C/[C@H](C)[C@H](OC(=O)c2ccccc2)[C@@]2(O)C[C@H](C)[C@H](OC(C)=O)[C@@H]2[C@H]1OC(C)=O (stereo not given in full) [TUCKEYANOL A]	1375.6	0.18	4.5	98.9	17.6 µg/mL (≈ 25.2 µM)	554	39.8	25.8 µg/mL (≈ 36.9 µM)
C=C1[C@@H](OC(=O)C(C)C)[C@@H](OC(C)=O)C(=O)C(C)(C)/C=C/[C@H](C)[C@H](OC(=O)c2ccccc2)[C@@]2(O)C[C@H](C)[C@H](OC(C)=O)[C@@H]2[C@H]1OC(C)=O [TUCKEYANOL B]	1353.2	0.25	4	97.3	12 µg/mL (≈ 17.5 µM)	347.6	25	19.4 µg/mL (≈ 28.3 µM)

Source: ChEMBL document CHEMBL1142477, “Synergistic interaction between p-glycoprotein modulators and epirubicine on resistant cancer cells” (Bioorg Med Chem, 2008)
